Paper PMC9728921, “Characterization of a KDM5 small molecule inhibitor with antiviral activity against hepatitis B virus” (PLOS ONE, 2022)

Key:
Type in all cases: biochemical
SIRT-1 = molecular target: T1, SIRT-1 (Homo sapiens, UniProt Q96EB6); assay: SIRT-1 histone deacetylase assay (AlphaLISA); settings: enzyme conc. 5 nM
T1 construct: 193-741; purchased BPS
Experimental: The assay plates were read on an Enspire plate reader (PerkinElmer) using a standard AlphaLISA program.
(§1) Data was analyzed using GraphPad Prism 6.0 (La Jolla, CA). […] IC50 values were calculated as an average of at least two independent experiments.

KDM4A = KDM4A (Homo sapiens, UniProt O75164); assay: KDM4A enzymatic assay (AlphaLISA)
Experimental: (§2) The following assay protocol was used for all histone demethylases tested except KDM1A, KDM5A, B, and D, which are described below. Compounds were serially diluted into a 384-well Alpha plate as a DMSO solution and mixed with 5 μL reaction buffer (buffer A) containing 50 mM HEPES (pH 7.0), 0.1% BSA, and 0.003% Tween-20. The enzyme of interest was pre-incubated with 15 μM of Fe^2+ for 10 min (except 30 min for KDM2B) in reaction buffer A. 5 μL of the enzyme mixture was added to each of the compound-containing wells and incubated for 10 min. The reaction was started by addition of a 5 μL mixture containing 300 nM peptide substrate, 75 μM L-ascorbic acid, and 30 μM α-ketoglutarate in buffer A. This final 15 μL of reaction mixture was incubated for 20 min for KDM5B and 1 hour for the other KDM enzymes. The reaction was quenched with 10 μL of diluted AlphaLISA Acceptor beads (1:400) in Epigenetics Buffer and incubated for 60 min. The Donor beads were diluted 1:400 into Epigenetics Buffer in the dark and 10 μL of this was added to each well and incubated for another 60 min in the dark. The assay plates were read on an Enspire plate reader (PerkinElmer) using a standard AlphaLISA program.
as §1

G9a = molecular target: T2, G9a (Homo sapiens, UniProt Q96KQ7); assay: Histone methyltransferase enzymatic assay, G9a; settings: enzyme conc. 100 nM
T2 construct: 786-1210; purchased RBC (read as Reaction Biology Corporation, named)
Experimental: (§3) Histone methyltransferase assays were performed in 96-well half-area optiplates (PerkinElmer) at room temperature. All concentrations are final unless noted otherwise. Compounds were serially diluted in DMSO and the final DMSO concentration was 1%. A 24 μL reaction mixture contained compound, enzyme, 200 nM of nucleosome or histone substrate, 400 nM ^3H-SAM (83.1 Ci/mmol), 50 mM Tris-HCl (pH 8.0), 50 mM NaCl, 5 mM MgCl2, 1 mM DTT, and 0.01% Tween-20. The plate was sealed, mixed on a Titramax plate shaker at 1200 rpm for 30 sec, and incubated at room temperature for 60 min. The reaction was quenched by addition of 24 μL mixture containing 5 mg/mL PVT-PEI beads and 300 μM unlabeled SAM in water. The plate was sealed, mixed as previously noted, incubated overnight, and read on a TopCount plate reader (PerkinElmer).
as §1

KDM5A = molecular target: T3, KDM5A (Homo sapiens, UniProt P29375); assay: KDM5A enzymatic assay (CisBio HTRF)
T3 construct: purchased Reaction Biology Corp (assay run there as a contract service)
Experimental: KDM5A and 5B were tested using CisBio HTRF assay platform by Reaction Biology Corp (Malvern, PA). All concentrations are final unless noted otherwise. Inhibitors were pre-incubated with 2.5 nM KDM5A or 1.2 nM KDM5B in a 5 μL reaction mixture containing 50 mM HEPES (pH 7.5), 50 mM NaCl, 0.01% Tween 20, 0.01% BSA for 15 min temperature. The reaction was initiated by addition of 5 μL of 50 nM Biotin-H3K4me3 and incubated with gentle shaking for 45 min at RT. The reaction was quenched with 10 mM EDTA and 200 mM potassium fluoride. Upon addition of Eu-Antibody and Streptavidine-XL665, the mixture was incubated for 2 hours in the dark. The fluorescence resonance energy transfer was measured using an excitation wavelength of 320 nm and emission wavelength of 665 nm on an Envision plate reader (Perkin Elmer).
as §1

NSD1 = molecular target: T4, NSD1 (Homo sapiens, UniProt Q96L73); assay: Histone methyltransferase enzymatic assay, NSD1; settings: enzyme conc. 50 nM
T4 construct: 1538-2696; purchased RBC (read as Reaction Biology Corporation, named)
Experimental: as §3, §1

KDM4B = molecular target: T5, KDM4B (Homo sapiens, UniProt O94953); assay: KDM4B enzymatic assay (AlphaLISA)
T5 sequence (O94953 1-1096): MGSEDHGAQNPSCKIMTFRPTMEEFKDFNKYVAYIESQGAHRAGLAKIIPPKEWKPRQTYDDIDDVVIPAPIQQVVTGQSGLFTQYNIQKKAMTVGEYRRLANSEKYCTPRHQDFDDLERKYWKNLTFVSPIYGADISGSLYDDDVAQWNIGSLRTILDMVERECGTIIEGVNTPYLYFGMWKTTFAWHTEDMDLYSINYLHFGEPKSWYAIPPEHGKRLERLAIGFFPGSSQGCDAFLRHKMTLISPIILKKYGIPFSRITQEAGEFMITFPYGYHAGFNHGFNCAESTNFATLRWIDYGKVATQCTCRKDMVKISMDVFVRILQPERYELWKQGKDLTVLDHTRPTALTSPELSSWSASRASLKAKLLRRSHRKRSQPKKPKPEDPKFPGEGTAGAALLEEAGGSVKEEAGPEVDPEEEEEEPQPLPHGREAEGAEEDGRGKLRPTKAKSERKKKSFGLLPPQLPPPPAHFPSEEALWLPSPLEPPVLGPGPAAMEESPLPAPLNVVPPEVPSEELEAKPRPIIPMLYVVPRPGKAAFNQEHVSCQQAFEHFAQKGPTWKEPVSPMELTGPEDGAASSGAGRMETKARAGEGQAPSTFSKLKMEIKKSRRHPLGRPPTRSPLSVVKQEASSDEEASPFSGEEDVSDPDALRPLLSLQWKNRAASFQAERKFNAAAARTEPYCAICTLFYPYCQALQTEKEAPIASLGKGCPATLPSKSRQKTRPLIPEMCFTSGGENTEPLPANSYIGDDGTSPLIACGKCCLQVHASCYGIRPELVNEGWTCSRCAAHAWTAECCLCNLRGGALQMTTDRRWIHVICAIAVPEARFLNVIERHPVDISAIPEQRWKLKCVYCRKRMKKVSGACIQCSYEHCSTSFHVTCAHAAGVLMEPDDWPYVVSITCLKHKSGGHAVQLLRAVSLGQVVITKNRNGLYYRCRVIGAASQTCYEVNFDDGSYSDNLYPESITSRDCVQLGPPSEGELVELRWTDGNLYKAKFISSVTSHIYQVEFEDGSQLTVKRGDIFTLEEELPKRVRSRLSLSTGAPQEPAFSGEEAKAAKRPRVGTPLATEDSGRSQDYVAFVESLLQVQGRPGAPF
Experimental: as §2, §1

KDM4A, sequence (O75164 whole entry): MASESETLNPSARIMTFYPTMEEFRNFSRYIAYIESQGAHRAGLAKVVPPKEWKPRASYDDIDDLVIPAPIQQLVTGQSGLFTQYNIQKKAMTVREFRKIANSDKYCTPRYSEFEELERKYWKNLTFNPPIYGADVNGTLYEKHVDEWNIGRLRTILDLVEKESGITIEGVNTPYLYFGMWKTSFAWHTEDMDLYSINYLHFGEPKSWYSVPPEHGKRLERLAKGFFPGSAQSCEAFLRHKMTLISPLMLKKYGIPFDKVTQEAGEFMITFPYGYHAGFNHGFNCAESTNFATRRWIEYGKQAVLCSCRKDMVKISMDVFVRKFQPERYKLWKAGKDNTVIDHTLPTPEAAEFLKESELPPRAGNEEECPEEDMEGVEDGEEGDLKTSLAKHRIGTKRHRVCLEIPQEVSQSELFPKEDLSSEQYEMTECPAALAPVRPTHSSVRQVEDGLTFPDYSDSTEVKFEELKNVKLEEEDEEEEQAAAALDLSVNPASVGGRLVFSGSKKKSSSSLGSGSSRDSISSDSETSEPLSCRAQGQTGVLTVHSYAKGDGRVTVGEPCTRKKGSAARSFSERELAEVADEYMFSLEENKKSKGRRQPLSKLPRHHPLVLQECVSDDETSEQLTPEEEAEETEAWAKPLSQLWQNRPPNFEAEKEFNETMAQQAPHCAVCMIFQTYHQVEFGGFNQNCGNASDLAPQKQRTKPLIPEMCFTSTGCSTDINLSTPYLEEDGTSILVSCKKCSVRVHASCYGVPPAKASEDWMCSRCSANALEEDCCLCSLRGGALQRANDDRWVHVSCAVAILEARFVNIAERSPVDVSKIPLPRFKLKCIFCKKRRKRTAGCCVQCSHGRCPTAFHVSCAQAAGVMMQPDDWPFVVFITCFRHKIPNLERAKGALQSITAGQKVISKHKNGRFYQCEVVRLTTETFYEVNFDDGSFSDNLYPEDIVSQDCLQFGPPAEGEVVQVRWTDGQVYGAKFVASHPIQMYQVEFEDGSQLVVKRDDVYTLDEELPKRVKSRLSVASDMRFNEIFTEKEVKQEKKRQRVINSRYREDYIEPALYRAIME
T3 sequence (P29375 whole entry): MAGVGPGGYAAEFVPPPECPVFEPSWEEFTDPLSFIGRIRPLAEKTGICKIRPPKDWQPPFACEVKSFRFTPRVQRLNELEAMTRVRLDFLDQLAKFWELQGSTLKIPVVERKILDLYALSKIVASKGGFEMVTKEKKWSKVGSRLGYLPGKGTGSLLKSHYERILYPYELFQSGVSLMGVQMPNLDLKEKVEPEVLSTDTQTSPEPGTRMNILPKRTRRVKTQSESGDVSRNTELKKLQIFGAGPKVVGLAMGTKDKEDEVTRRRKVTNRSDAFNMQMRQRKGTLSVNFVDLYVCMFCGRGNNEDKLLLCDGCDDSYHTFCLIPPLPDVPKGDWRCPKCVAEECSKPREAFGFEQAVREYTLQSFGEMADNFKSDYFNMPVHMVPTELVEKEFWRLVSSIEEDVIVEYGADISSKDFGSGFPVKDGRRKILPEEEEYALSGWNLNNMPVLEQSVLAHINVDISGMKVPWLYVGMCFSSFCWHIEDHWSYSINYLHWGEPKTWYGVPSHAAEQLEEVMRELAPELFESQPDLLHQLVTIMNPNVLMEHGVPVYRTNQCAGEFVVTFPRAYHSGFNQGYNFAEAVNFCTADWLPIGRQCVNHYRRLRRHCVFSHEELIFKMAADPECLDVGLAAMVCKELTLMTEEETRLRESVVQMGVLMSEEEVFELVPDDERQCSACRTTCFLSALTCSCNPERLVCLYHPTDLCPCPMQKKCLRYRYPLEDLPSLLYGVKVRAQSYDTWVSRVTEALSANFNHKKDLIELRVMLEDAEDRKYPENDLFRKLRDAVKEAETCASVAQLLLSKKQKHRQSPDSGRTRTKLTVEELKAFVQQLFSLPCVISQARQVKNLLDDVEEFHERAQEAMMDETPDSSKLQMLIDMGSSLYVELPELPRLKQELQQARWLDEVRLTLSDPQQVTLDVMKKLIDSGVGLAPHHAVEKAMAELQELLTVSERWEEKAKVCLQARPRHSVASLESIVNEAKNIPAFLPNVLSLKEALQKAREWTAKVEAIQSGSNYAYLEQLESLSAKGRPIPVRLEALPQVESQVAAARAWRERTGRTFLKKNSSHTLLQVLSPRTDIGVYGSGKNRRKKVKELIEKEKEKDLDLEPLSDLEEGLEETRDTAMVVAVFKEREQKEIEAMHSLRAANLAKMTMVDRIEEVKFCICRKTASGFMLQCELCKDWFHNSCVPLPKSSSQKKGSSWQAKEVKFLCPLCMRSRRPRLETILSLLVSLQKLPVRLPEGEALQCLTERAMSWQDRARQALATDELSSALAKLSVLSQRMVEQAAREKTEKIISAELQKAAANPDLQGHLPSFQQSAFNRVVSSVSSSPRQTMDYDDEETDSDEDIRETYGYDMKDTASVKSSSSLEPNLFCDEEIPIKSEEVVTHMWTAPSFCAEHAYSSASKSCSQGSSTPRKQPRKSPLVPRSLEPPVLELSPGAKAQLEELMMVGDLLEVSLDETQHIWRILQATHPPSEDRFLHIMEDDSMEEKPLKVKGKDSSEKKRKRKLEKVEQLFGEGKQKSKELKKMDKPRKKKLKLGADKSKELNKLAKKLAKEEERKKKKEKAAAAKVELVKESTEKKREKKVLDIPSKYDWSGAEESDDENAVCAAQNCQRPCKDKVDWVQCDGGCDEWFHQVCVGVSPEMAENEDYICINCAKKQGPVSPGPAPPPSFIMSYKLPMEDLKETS
T1 sequence (Q96EB6 193-741): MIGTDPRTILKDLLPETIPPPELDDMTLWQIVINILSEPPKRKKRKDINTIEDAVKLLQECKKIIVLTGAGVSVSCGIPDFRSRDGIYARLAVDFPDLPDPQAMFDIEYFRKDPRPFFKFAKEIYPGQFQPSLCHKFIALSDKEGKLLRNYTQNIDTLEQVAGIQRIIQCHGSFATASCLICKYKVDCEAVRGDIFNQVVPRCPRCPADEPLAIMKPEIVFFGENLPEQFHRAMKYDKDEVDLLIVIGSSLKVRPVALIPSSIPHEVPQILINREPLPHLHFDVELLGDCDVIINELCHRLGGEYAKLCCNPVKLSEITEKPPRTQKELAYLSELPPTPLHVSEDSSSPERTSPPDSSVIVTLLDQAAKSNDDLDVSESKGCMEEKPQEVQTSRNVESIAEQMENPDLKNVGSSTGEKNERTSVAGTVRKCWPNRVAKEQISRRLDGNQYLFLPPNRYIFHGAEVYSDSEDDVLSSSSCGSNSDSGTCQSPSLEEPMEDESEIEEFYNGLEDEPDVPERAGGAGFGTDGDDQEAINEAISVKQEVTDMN
T4 sequence (Q96L73 1538-2696): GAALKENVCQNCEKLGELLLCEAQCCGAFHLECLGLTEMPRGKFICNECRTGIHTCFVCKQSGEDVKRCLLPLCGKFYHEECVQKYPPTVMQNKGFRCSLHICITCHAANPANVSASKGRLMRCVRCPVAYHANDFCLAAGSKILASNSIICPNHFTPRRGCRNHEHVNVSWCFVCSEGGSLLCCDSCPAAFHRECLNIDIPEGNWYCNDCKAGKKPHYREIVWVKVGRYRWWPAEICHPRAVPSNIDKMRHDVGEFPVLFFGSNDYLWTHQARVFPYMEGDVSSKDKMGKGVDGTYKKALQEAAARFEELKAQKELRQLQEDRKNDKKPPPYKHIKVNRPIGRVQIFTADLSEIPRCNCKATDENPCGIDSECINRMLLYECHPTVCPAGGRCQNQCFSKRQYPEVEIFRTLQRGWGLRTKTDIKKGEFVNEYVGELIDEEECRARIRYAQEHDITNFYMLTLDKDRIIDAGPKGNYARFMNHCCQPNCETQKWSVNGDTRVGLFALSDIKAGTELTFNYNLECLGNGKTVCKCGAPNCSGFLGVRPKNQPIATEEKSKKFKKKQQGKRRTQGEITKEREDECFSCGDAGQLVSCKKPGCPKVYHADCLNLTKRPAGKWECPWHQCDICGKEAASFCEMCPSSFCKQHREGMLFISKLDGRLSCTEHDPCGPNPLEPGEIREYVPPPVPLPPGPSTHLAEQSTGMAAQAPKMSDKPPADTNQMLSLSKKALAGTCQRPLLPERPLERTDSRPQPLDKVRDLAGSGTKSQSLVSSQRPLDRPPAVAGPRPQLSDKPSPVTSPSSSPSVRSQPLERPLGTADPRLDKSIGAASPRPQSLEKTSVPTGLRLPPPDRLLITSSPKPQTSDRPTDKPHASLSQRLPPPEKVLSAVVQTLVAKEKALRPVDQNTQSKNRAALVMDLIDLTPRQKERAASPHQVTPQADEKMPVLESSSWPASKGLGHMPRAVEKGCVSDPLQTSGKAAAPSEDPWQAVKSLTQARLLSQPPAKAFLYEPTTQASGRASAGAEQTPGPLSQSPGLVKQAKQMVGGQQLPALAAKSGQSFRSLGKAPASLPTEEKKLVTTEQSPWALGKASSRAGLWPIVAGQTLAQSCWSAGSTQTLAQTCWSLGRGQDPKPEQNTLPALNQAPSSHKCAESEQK
T2 sequence (Q96KQ7 786-1210): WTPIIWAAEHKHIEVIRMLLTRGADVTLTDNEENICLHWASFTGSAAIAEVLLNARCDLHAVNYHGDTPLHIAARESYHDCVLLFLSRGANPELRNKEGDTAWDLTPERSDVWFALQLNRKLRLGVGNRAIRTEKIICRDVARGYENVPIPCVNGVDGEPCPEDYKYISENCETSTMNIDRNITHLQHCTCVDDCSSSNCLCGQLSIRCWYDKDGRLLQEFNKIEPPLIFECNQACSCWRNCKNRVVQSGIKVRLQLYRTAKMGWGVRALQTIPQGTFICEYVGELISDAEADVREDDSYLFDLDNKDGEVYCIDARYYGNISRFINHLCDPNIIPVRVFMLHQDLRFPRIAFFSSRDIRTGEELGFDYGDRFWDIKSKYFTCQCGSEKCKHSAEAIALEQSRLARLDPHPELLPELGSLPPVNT

IC50 (SIRT-1): > 100000 nM | Fold Selectivity Compared to KDM5A (KDM4A; IC50 of KDM4A over KDM5A): 20 fold | IC50 (KDM4A; enzyme concentration 0.2 nM): 7.2 nM | IC50 (G9a): > 100000 nM | Fold Selectivity Compared to KDM5A (KDM5A; IC50 of KDM5A over KDM5A): 1 fold | IC50 (KDM5A; enzyme concentration 2.5 nM, IC50 lower than enzyme concentration, likely underestimates potency): 0.36 nM | IC50 (NSD1): > 100000 nM | Fold Selectivity Compared to KDM5A (KDM4B; IC50 of KDM4B over KDM5A): 13 fold | IC50 (KDM4B; enzyme concentration 1 nM): 4.7 nM
Structure (SMILES): CCN(CCN(C)C)C(=O)CNCc1cc(C(=O)O)ccn1 [GS-080]
